78 compounds from the METLIN SMRT retention time set (Domingo-Almenara et al. 2019) can be followed below.

The structures appear in SMILES notation.

This series can be described thus: gradient 5% acetonitrile 3 min, to 50% in 2 min, to 85% in 15 min, held 3 min, 100 µL/min. The note with it: column: Zorbax Extend-C18 2.1 x 50 mm; eluents: water / acetonitrile, 0.1% formic acid. In short, it runs like this: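 In both positive and negative ionization mode, a quadrupole time-of-flight mass spectrometer coupled to HPLC analyzed pure standards run in mixtures of ~100 molecules. The Zorbax Extend-C18 column (2.1 × 50 mm, 1.8 μm) was operated at 100 μL/min with water and acetonitrile, each containing 0.1% formic acid. The dead volume was 40 μL and the dwell volume 900 μL. Retention time came from adduct peaks that were computationally picked and individually inspected by hand.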
In the case of `Cc1cccc(OCc2nc(-c3ccc(-c4csc(C5CC5)n4)cc3)no2)c1`, the RP-LC retention time was determined as 784 s.
The result for `COc1ccc(C2=NCC(=O)N(CC(=O)Nc3cc(F)ccc3F)c3sccc32)cc1` reads 702 s; that for `CCN(CC)C(=O)N1CC(Oc2cccc(-c3nc(C)no3)c2)C1`, 873 s; that for `COCCCn1c(=O)c2ccccc2n(Cc2nc(-c3ccc(C)cc3)no2)c1=O`, 1060 s.
The result for `CCn1c(=O)n(CC)c2cc(NC3=C(C(N)=O)S(=O)(=O)c4ccccc43)ccc21` reads 702 s.
Next, `COc1cccc(NC(=O)NC2CCN(c3ccc(F)c(C)c3)C2=O)c1` (stereo not drawn): 818 s; `COc1ccc(C(=O)Nc2cnc(N3CCCC3)nc2)cc1`: 691 s.
Regarding `CCOc1ccc(S(=O)(=O)N2CCC(C(=O)Nc3ccc(OC)cc3OC)CC2)cc1C`, the RP-LC retention time amounted to 1010 s.
Next, `Cc1ccc(C)c(NC(=O)C2CCN(C(=O)C3Sc4ccccc4NC3=O)CC2)c1` (stereo not drawn): 760 s.
Next, `Cc1c(Cl)cccc1NC(=O)N1CCC(n2cnc3ccccc3c2=O)CC1`: 791 s; `Cc1ccc(NC(=O)N2CCCC2c2nc(-c3cccc(F)c3)no2)c(C)c1` (stereo not drawn): 1030 s.
The result for `O=C(NC1CCCCCC1)C1CCN(c2nc3ccccc3nc2C(F)(F)F)CC1` reads 1200 s; that for `CSc1ccc(NC(=O)c2cn3c(n2)CCCC3)cc1`, 624 s.
Take `Cc1cc(-c2nnc(-c3ccc(F)cc3)o2)c(C)n1CC(=O)NCc1ccc(F)cc1`: the RP-LC retention time was found to be 945 s.
`CCn1cnc(S(=O)(=O)N2CCCC(C(=O)Nc3ccc(C)cc3C)C2)c1` (stereo not drawn) displayed an RP-LC retention time of 753 s.
`COc1cc(NC(=O)N2c3ccccc3CC2c2nc(C3CC3)no2)cc(OC)c1` (stereo not drawn) displayed an RP-LC retention time of 1030 s.
Next, `COc1ccc(CC(=O)Nc2nnc(SCc3ccccc3F)s2)cc1OC`: 824 s.
The result for `O=C(Nc1ccc2c(c1)CCC2)C1CCN(C(=O)c2ncn3c2COC(c2ccc(F)cc2)C3)CC1` (stereo not drawn) reads 872 s; that for `COc1cccc(-c2cc(C(=O)N3CCOCC3)[nH]n2)c1`, 658 s; that for `CCOC(=O)Cc1c(C)nc2cc(-c3ccccc3)nn2c1C`, 1020 s.
`Cc1noc2ncnc(N3CCCC(C(=O)Nc4ccc(N5CCC(C)CC5)cc4)C3)c12` (stereo not drawn): the RP-LC retention time is 698 s.
On to `O=C1N(CN2CCN(c3ccccn3)CC2)c2ccccc2C12OCCCO2`, for which the RP-LC retention time is 572 s.
The result for `Cc1cccc(C)c1-n1ccn(Cc2nc(-c3ccc(Cl)cc3)no2)c(=O)c1=O` reads 978 s; that for `Cc1cc(C)n(-c2ccc(=O)n(CC(=O)NCc3ccc4c(c3)OCO4)n2)n1`, 668 s; that for `CC1CCN(c2cc(-n3cnc(C(=O)NC4CCCCC4)c3)ncn2)CC1`, 1030 s.
The result for `COC(=O)c1cnc2nc(C)ccc2c1Nc1ccc(Cl)c(F)c1` reads 713 s.
The result for `CCOc1ccc2nc(N3CCCC(C(=O)N4CCC(Cc5ccccc5)CC4)C3)sc2c1` (stereo not drawn) reads 1180 s; that for `COc1ccc(-c2nnc(-c3ccccc3)o2)cc1S(=O)(=O)N(C)C`, 840 s.
For `CCC(C)NC(=O)Cn1c(=O)cc(-c2nc(C3CC3)no2)c2ccccc21` (stereo not drawn), the RP-LC retention time is 863 s.
Next, `CN1C(=O)c2cc(C(=O)NCCc3c[nH]c4ccccc34)nn2CC1(C)C(=O)NC1CCCCC1` (stereo not drawn): 806 s; `Cc1noc(-c2ccc(=O)n(C(C)C(=O)NCc3cccs3)c2)n1` (stereo not drawn): 646 s; `COc1ccccc1CCNC(=O)CSC1CCc2ccccc2NC1=O` (stereo not drawn): 784 s.
Next, `CN1CC(=O)N(CC(=O)N2CCN(c3cccc(Cl)c3)CC2)c2ccccc2C1=O`: 747 s; `Cc1ccc(F)c(NS(=O)(=O)c2cn(CC(C)C)c3ncccc23)c1`: 932 s; `O=C(Cn1cccc1-c1nc(-c2ccccc2)cs1)N1CCC(N2CCCCC2)CC1`: 716 s.
Compound `COc1cccc(Cn2c(=O)c3sccc3n(Cc3nc(-c4cccc(C)c4)no3)c2=O)c1` displayed an RP-LC retention time of 1160 s.
The result for `CCc1ccc(NS(=O)(=O)c2ccc(-c3nnc(C4CCC4)o3)o2)cc1` reads 996 s.
The result for `Cc1cccc(NC(=O)N2CCC(CC(=O)N3CCCCC3)CC2)c1C` reads 751 s; that for `Cc1ccc(CNC(=O)c2ccc(Cn3c(C(F)(F)F)nc4cccnc43)cc2)cc1`, 943 s; that for `COc1ccc(OC)c(S(=O)(=O)NC2CCc3nn(CC4CC4)c(=O)n3CC2)c1` (stereo not drawn), 707 s.
Next, `Cc1onc(-c2ccc(Br)s2)c1C(=O)NCCCN1CCN(C)CC1`: 611 s.
In turn, `COCCN1CCC(N2CCCN(C(=O)C3COc4ccccc4O3)CC2)C1=O` (stereo not drawn) displayed an RP-LC retention time of 560 s.
`O=C(Cc1ccsc1)NCCC1CCN(C(=O)Nc2cc(F)cc(F)c2)CC1`: the RP-LC retention time was determined as 853 s.
In turn, `Cc1ccc(NC(=O)c2cn(C)nc2S(=O)(=O)N2CCSCC2)cc1C` showed an RP-LC retention time of 987 s.
Compound `Cc1nc(N2CCN(c3ccccn3)CC2)c2c(C)c(C(=O)Nc3cc(F)ccc3C)sc2n1` had an RP-LC retention time of 733 s.
Next, `CCCN1CCN(C(=O)Cn2nc(C)c3sc(CC)nc3c2=O)CC1`: 577 s.
As to `O=C(Nc1cnc(N2CCCCCC2)nc1)c1cnccn1`, the RP-LC retention time is 771 s.
Next, `COc1ccccc1C(=O)N1C[C@H](c2nc(-c3ccccc3)no2)[C@@H](C)C1`: 820 s.
`CCCN1C(=O)c2cccnc2Sc2cc(C(=O)NC3CCCC3)ccc21` had an RP-LC retention time of 837 s.
With `Cc1ccc(-n2ccnc2SCc2nc(-c3ccc(Br)cc3)no2)cc1`, the RP-LC retention time was 1090 s.
The result for `CC[C@@]1(O)C[C@H](OC2CC(N(C)C)C(O)C(C)O2)c2c(cc3c(c2O)C(=O)c2c(O)ccc(O)c2C3=O)[C@H]1C(=O)OC` (stereo partly drawn) reads 717 s; that for `CNC(=O)c1ccc(-c2nc3cc(NS(=O)(=O)c4ccccc4Cl)ccc3n2C)cc1`, 633 s; that for `O=C(O)C1CCCN(c2cc(-n3ccnc3)ncn2)C1` (stereo not drawn), 537 s.
Next, `Cc1cc(F)ccc1N1C(=O)CN(S(C)(=O)=O)CC1(C)C(=O)NC1CCCCC1` (stereo not drawn): 822 s; `O=C1NC(C(=O)NCc2ccco2)Cn2cccc21` (stereo not drawn): 605 s; `O=C1Nc2ccccc2SC1C(=O)N1CCC(C(=O)N2CCN(C3CCCCC3)CC2)CC1` (stereo not drawn): 590 s.
The result for `O=C(c1ccc(C(F)(F)F)cc1)N1CCC(n2c(-c3ccoc3)nc3cccnc32)C1` (stereo not drawn) reads 827 s; that for `CC(C)C(=O)NCc1csc(C2CCCN(C(=O)CC(C)(C)C)C2)n1` (stereo not drawn), 734 s; that for `COc1ccc(OC)c(S(=O)(=O)N2CCn3c(nn(CC4CC4)c3=O)C2)c1`, 734 s.
The compound `CCOC(=O)c1noc2nc(C)nc(Nc3ccc(C)cc3)c12` gave an RP-LC retention time of 936 s.
The result for `Cc1ccc(F)cc1NC(=O)Cn1cnc2nc(N3CCC(C(=O)NC4CC4)CC3)sc2c1=O` reads 674 s; that for `O=C(NCCc1nnc2ccc(SCc3ccccn3)nn12)c1ccccc1`, 575 s.
Next, `CN1CCN(CCCNC(=O)CCc2cn(-c3ccccc3)nc2-c2ccc3c(c2)OCO3)CC1`: 614 s; `O=C(CCCn1c(=O)c2cccn2c2ccc(F)cc21)NCCCN1CCOCC1`: 603 s; `CCC(CC)NC(=O)C1CC(=O)N(CCc2c[nH]c3ccc(Cl)cc23)C1` (stereo not drawn): 796 s.
In the case of `CCOCCCNC(=O)c1ccc(-c2ccc3c(c2)CCN3C(C)=O)cc1`, the RP-LC retention time is 598 s.
The result for `CN(CC1CCOC1)C(=O)Nc1ccc(Cl)cc1` (stereo not drawn) reads 696 s; that for `CCc1nc(-c2csc(S(=O)(=O)N3CCCC(C(=O)NCc4cc(C)ccc4C)C3)c2)no1` (stereo not drawn), 1080 s; that for `O=c1n(CC2CC2)nc2n1CCC(NS(=O)(=O)c1cccc(F)c1)CC2` (stereo not drawn), 717 s.
`CCc1cccc(C)c1NC(=O)C1CCCN(S(=O)(=O)c2ccc(OC)c(Cl)c2)C1` (stereo not drawn) registered an RP-LC retention time of 1020 s.
Next, `CCC1Oc2ccc(S(=O)(=O)N3CCC(C(=O)N(C)C4CCCCC4)CC3)cc2NC1=O` (stereo not drawn): 917 s; `CCOc1ccc(NC(=O)c2cnc(-c3ccc(F)cc3)nc2-c2ccncc2)cc1`: 935 s; `Fc1ccccc1-c1noc(-c2nc(-c3ccccc3F)no2)n1`: 1140 s.
Next, `COc1ccc2c(c1)C1(CCN(S(=O)(=O)c3ccc4c(c3)CC(=O)N4C)C1)C(=O)N2C` (stereo not drawn): 744 s; `COc1cc(NC(=O)N2CCCC(C)(C(=O)NCc3ccc(C)cc3)C2)cc(OC)c1OC` (stereo not drawn): 811 s; `CCCOc1ccc(-c2nc(N3CCCCC3)c3ccccc3n2)cc1`: 930 s.
The result for `O=c1c2oc3ccccc3c2ncn1Cc1nc(-c2cccc(C(F)(F)F)c2)no1` reads 1040 s.
In the case of `CCc1nn2c(CNS(=O)(=O)c3cc(F)ccc3F)c(-c3ccccc3)nc2s1`, the RP-LC retention time is 929 s.
